Reference: patent US10858344B2, “Hydantoin containing deoxyuridine triphosphatase inhibitors” (CV6 Therapeutics (NI) Limited, priority 2016, dated 2020)

Target: recombinant human deoxyuridine nucleotidohydrolase (dUTPase) (Homo sapiens (Human), UniProt P33316)
Test: fluorescence-based dUTPase inhibition assay
Assay type: biochemical
Details: for % relative inhibition vs. positive control: mean over three concentrations, typically 100, 50 and 25 μmol/L, compared to in-run positive control
Description: Recombinant human deoxyuridine nucleotidohydrolase (dUTPase) is expressed and purified as described in Ladner R D, Carr S A, Huddleston M J, McNulty D E, Caradonna S J. J Biol Chem. 1996 Mar. 29; 271(13):7752-7. All drugs stocks are aliquoted and diluted as appropriate prior to use. The oligonucelotide primer, templates and fluorophore- and quencher-labeled detection probes are synthesized by Integrated DNA Technologies (Coralville, Iowa), subjected to polyacrylamide gel electrophoresis purification and reconstituted in Omnipur sterile nuclease-free water (EMD Chemicals USA, Gibbstown N.J.) at a stock concentration of 100 μmol/L. The two non-emissive (dark) quenching molecules incorporated into the detection probes include the Iowa black fluorescein quencher (IBFQ; absorption max 531 nm) and ZEN (non-abbreviation; absorption max 532 nm). The fluorescent label utilized is 6-FAM (5′-carboxyfluorescein; excitation max.=494 nm, emission max.=520 nm). Probes are further diluted to a working stock of 10 μmol/L and aliquoted to avoid repeated freeze/thaw cycles. AmpliTaq Gold DNA Polymerase, GeneAmp 10×PCR Buffer 2, MgCl2 and MicroAmp Optical 96-well Reaction Plates are purchased from Applied Biosystems (Carlsbad, Calif.). dNTPs are purchased individually at stock concentrations of 100 mmol/L from New England Biolabs at HPLC-certified >99% purity (Ipswich, Mass.).
Reaction mixtures contained primer, probe and template at an equimolar final concentration of 0.4 μmol/L. Magnesium chloride (MgCl2) is included at a final concentration of 2 mmol/L. Non-limiting dNTPs are included in the reaction mix in excess at a final concentration of 100 μmol/L (dUTP/dTTP is excluded). AmpliTaq Gold DNA polymerase is added at 0.875 U/reaction, 2.5 μl of 10×PCR buffer 2 added and nuclease-free ddH2O added to a final reaction volume of 25 μl. For dUTP inhibition analysis, the volume of ddH2O is further modified to accommodate an additional 1 μl of dUTPase (10 ng/μl) and 1 μl of inhibitor or DMSO control. Thermal profiling and fluorescence detection is performed using a customized thermal program on board a Roche Lightcycler LC480 Instrument II. For analysis of dNTPs, the thermal profile consisted of an 8 min 37° C. step followed by a 10 min 95° C. step to ‘hot-start’ the Taq polymerase and a primer extension time of up to 30 min at 60° C. Raw fluorescence spectra for 6-FAM is measured at specified time intervals to follow assay progression on board a Roche LightCycler 480 Software Version 1.5 and exported and analyzed in Microsoft Excel (Microsoft, Redmond Wash.) and Prism (GraphPad Software, La Jolla Calif.). Fluorescence values for blank reactions (limiting dNTP omitted) are subtracted to give normalized fluorescence units (NFU) to account for background fluorescence.
Test compounds are screened in a fluorescence-based assay. The assay employs a DNA polymerase-based approach utilizing an oligonucleotide template with 3 distinct regions: a 3′ primer binding region, a mid-template dUTP/thymidine triphosphate (TTP) detection region and a 5′ 6-[…] (FAM)-labeled probe binding region that incorporates a black hole quenching moiety. During the reaction, the probe and primer hybridize to the oligonucleotide template to form the template:primer:probe complex. When Taq polymerase binds to the primer in the TPP complex and dUTP is present, successful extension of the nascent strand occurs and the inherent 5′ to 3′ exonuclease activity of Taq polymerase cleaves and displaces the 6-FAM-labeled probe in a 5′ to 3′ direction, releasing the 6-FAM fluorophore from its proximity to the three quenchers. This displacement effectively disrupts the Förster resonance energy transfer (FRET) and the resulting fluorescence detected upon excitation is directly proportional to the amount of the dUTP available in the assay for incorporation. […]

Sequence of recombinant human deoxyuridine nucleotidohydrolase (dUTPase) (P33316 other isoform, or with tags, fused parts or gaps): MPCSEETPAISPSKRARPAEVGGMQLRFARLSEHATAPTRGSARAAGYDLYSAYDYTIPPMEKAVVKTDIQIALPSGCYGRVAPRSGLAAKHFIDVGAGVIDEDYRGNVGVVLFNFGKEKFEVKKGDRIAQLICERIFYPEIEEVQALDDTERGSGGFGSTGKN

SMILES | % relative inhibition vs. positive control | IC50
C[C@@H](NS(=O)(=O)CCCCCN1C(=O)NC(=O)[C@@H]1C)c1ccc(F)c(OCC2CC2)c1 [Compound 107b, N—((R)-1-(3-(cyclopropylmethoxy)-4-fluorophenyl)ethyl)-5-((S)-5-methyl-2,4-dioxoimidazolidin-1-yl)pentane-1-sulfonamide] | 154% | 
C[C@@H](NS(=O)(=O)CCCCCN1CC(=O)N(C(=O)OC(C)(C)C)C1=O)c1ccc(F)c(OCC2CC2)c1 [Example 93] | 20% | 3750 nM
C[C@H]1C(=O)NC(=O)N1C/C=C/CCS(=O)(=O)NC1(c2ccc(F)c(OCC(C)(C)O)c2)CC1 [compound 122, (S,E)-N-(1-(4-fluoro-3-(2-hydroxy-2-methylpropoxy)phenyl)cyclopropyl)-5-(5-methyl-2,4-dioxoimidazolidin-1-yl)pent-3-ene-1-sulfonamide] | 40% | 
O=C1CN(COCCCS(=O)(=O)NC2(c3ccc(F)c(OCC4CC4)c3)CC2)C(=O)N1 [compound 120, N-(1-(3-(cyclopropylmethoxy)-4-fluorophenyl)cyclopropyl)-3-((2,4-dioxoimidazolidin-1-yl)methoxy)propane-1-sulfonamide] | 172% | 
CC(Oc1cc([C@@H](C)NS(=O)(=O)CCCCCN2CC(=O)NC2=O)ccc1F)C1CC1 (stereo partly drawn) [Example 90, N—((1R)-1-(3-(1-cyclopropylethoxy)-4-fluorophenyl)ethyl)-5-(2,4-dioxoimidazolidin-1-yl)pentane-1-sulfonamide] | 37% | 2000 nM
CC(C)C(NS(=O)(=O)CCCCCN1CC(=O)NC1=O)c1ccc(F)c(OCC2CC2)c1 (stereo not drawn) [Example 103, N-(1-(3-(cyclopropylmethoxy)-4-fluorophenyl)-2-methylpropyl)-5-(2,4-dioxoimidazolidin-1-yl)pentane-1-sulfonamide] | 27% | 
[2H]C([2H])(Oc1cc([C@@H](C)NS(=O)(=O)CCCCCN2CC(=O)NC2=O)ccc1F)C1CC1 [Example 97, (R)—N-(1-(3-(cyclopropylmethoxy-d2)-4-fluorophenyl)ethyl)-5-(2,4-dioxoimidazolidin-1-yl)pentane-1-sulfonamide] | 182% | 
C[C@H](NS(=O)(=O)CCCCCN1CC(=O)NC1=O)c1ccc(F)c(OCCC2CC2)c1 [compound 128, (S)—N-(1-(3-(2-cyclopropylethoxy)-4-fluorophenyl)ethyl)-5-(2,4-dioxoimidazolidin-1-yl)pentane-1-sulfonamide] | 53% | 
CC(C)COc1cc(C2(NS(=O)(=O)CCCCCN3C(=O)NC(=O)C3(C)C)CC2)ccc1F [118b, 5-(5,5-dimethyl-2,4-dioxoimidazolidin-1-yl)-N-(1-(4-fluoro-3-isobutoxyphenyl)cyclopropyl)pentane-1-sulfonamide] | 19% | 
CC(C)COc1cc(C2(NS(=O)(=O)CC/C=C/CN3C(=O)NC(=O)C3(C)C)CC2)ccc1F [118a, (E)-5-(5,5-dimethyl-2,4-dioxoimidazolidin-1-yl)-N-(1-(4-fluoro-3-isobutoxyphenyl)cyclopropyl)pent-3-ene-1-sulfonamide] | 19% | 
CC(C)COc1cc([C@@H](C)NS(=O)(=O)CC/C=C/CN2C(=O)NC(=O)[C@H]2C)ccc1F [Compound 108a, (E)-N—((R)-1-(4-fluoro-3-isobutoxyphenyl)ethyl)-5-((R)-5-methyl-2,4-dioxoimidazolidin-1-yl)pent-3-ene-1-sulfonamide] | 123% | 
C[C@@H](NS(=O)(=O)CCCCCN1CC(=O)NC1=O)c1ccc(F)c(OC2CCC2)c1 [Example 83, (R)—N-(1-(3-cyclobutoxy-4-fluorophenyl)ethyl)-5-(2,4-dioxoimidazolidin-1-yl)pentane-1-sulfonamide] | 37% | 2000 nM
C[C@@H](NS(=O)(=O)CCCCCN1CC(=O)NC1=O)c1ccc(F)c(Oc2ccccc2)c1 [Example 99, (R)-5-(2,4-dioxoimidazolidin-1-yl)-N-(1-(4-fluoro-3-phenoxyphenyl)ethyl)pentane-1-sulfonamide] | 60% | 1250 nM
C[C@@H](NS(=O)(=O)CCCOCN1CC(=O)NC1=O)c1cccc(OC2CCCC2)c1 [Example 84, (R)—N-(1-(3-(cyclopentyloxy)phenyl)ethyl)-3-((2,4-dioxoimidazolidin-1-yl)methoxy)propane-1-sulfonamide] | 30% | 2500 nM
C[C@@H](NS(=O)(=O)CCCCCN1CC(=O)NC1=O)c1ccc(F)c(OCC2COC2)c1 [Example 87, (R)-5-(2,4-dioxoimidazolidin-1-yl)-N-(1-(4-fluoro-3-(oxetane-3-ylmethoxy)phenyl)ethyl)pentane-1-sulfonamide] | 37% | 2000 nM
C[C@@H](NS(=O)(=O)CCCCCN1CC(=O)NC1=O)c1ccc(F)c(OS(=O)(=O)C(F)(F)F)c1 [Example 94, (R)-5-(1-((5-(2,4-dioxoimidazolidin-1-yl)pentyl)sulfonamido)ethyl)-2-fluorophenyl trifluoromethanesulfonate] | 1% | 150000 nM
C[C@@H](NS(=O)(=O)CCCCCN1CC(=O)NC1=O)c1ccc(F)c(OC2CCCC2)c1 [Example 86, (R)—N-(1-(3-(cyclopentyloxy)-4-fluorophenyl)ethyl)-5-(2,4-dioxoimidazolidine-1-yl)pentane-1-sulfonamide] | 187% | 
CC(C)COc1cc([C@@H](C)NS(=O)(=O)CCC=CCN2C(=O)NC(=O)C2(C)C)ccc1F [Example 113, (R)-5-(5,5-dimethyl-2,4-dioxoimidazolidin-1-yl)-N-(1-(4-fluoro-3-isobutoxyphenyl)ethyl)pent-3-ene-1-sulfonamide] | 8% | 
C[C@H]1C(=O)NC(=O)N1CCCCCS(=O)(=O)NC1(c2cccc(OCC3CC3)c2)CC1 [123b, (S)—N-(1-(3-(cyclopropylmethoxy)phenyl)cyclopropyl)-5-(5-methyl-2,4-dioxoimidazolidin-1-yl)pentane-1-sulfonamide] | 102% | 
C[C@@H](NS(=O)(=O)CCCCCC1CC(=O)NC1=O)c1ccc(F)c(OCC2CC2)c1 (stereo partly drawn) [compound 126, N—((R)-1-(3-(cyclopropylmethoxy)-4-fluorophenyl)ethyl)-5-(2,5-dioxopyrrolidin-3-yl)pentane-1-sulfonamide] | 152% | 
C[C@@H](NS(=O)(=O)CCCOCN1CC(=O)NC1=O)c1ccc(F)c(OC2CCCC2)c1 [Example 85, (R)—N-(1-(3-(cyclopentyloxy)-4-fluorophenyl)ethyl)-3-((2,4-dioxoimidazolidin-1-yl)methoxy)propane-1-sulfonamide] | 187% | 
C[C@@H](NS(=O)(=O)CCCOCN1CC(=O)NC1=O)c1cccc(OCC2CC2)c1 [Example 115, (R)—N-(1-(3-(cyclopropylmethoxy)phenyl)ethyl)-3-((2,4-dioxoimidazolidin-1-yl)methoxy)propane-1-sulfonamide] | 164% | 
C[C@@H](NS(=O)(=O)CC/C=C/CC1CC(=O)NC1=O)c1ccc(F)c(OCC2CC2)c1 (stereo partly drawn) [compound 125, (E)-N—((R)-1-(3-(cyclopropylmethoxy)-4-fluorophenyl)ethyl)-5-(2,5-dioxopyrrolidin-3-yl)pent-3-ene-1-sulfonamide] | 71% | 
